{"source": "patent US20060241027A1", "about": "“Hiv inhibiting proteins” (priority 2002, published 2006)", "key": {"[1]": {"biological_target": "HIV-1 gp41 (transmembrane subunit of the HIV-1 envelope glycoprotein) (HIV-1) (UniProt P03377)", "experiment": "cell-based or functional assay"}, "[2]": {"test_system": "HIV-2", "conditions": "cited from earlier work"}, "[3]": {"test_system": "SIV", "conditions": "cited from earlier work"}, "[4]": {"conditions": "primates; cited from earlier work"}, "[5]": {"test_system": "HIV", "conditions": "12.5 mg/day to 200 mg/day (Gulick, 2002); cited from earlier work"}, "[6]": {"test_system": "HIV-1", "conditions": "cited from earlier work"}, "[7]": {"test_system": "HIV-1", "conditions": "low nanomolar range; cited from earlier work"}, "[8]": {"conditions": "cited from earlier work; for terminal half-life: humans"}}, "note": "Where two headings read alike, the source gives them in different places."}
{"substance": "C-terminal albumin-(GGS)4GG-T-20 fusion protein, expressed in the pmt1 gene deficient yeast strain (from UniProt P02768 25-609)", "values": [{"measurement": "50% inhibitory concentration, HIV-1 cell-cell fusion assay on Jurkat cells", "setting": "[1]", "value": "4 to 13", "unit": "nM"}]}
{"substance": "C-terminal albumin-(GGS)4GG-T-1249 fusion protein, produced in the standard (PMT1) yeast strain (from UniProt P02768 25-609)", "values": [{"measurement": "50% inhibitory concentration (IC50), HIV-1 cell-cell fusion assay on Jurkat cells", "setting": "[1]", "value": "10 to 100", "unit": "nM"}]}
{"substance": "WQEWEQKITALLEQAQIQQEKNEYELQKLDKWASLWEWF [T-1249]", "values": [{"measurement": "activity against HIV-2", "setting": "[2]", "value": "active"}, {"measurement": "activity against SIV", "setting": "[3]", "value": "active"}, {"measurement": "half-life / AUC compared with T-20", "setting": "[4]", "value": "twofold increased AUC"}, {"measurement": "suppression of HIV", "setting": "[5]", "value": "dose-related suppression of HIV"}, {"measurement": "activity against HIV-1", "setting": "[6]", "value": "active"}]}
{"substance": "enfuvirtide", "values": [{"measurement": "activity against HIV-2", "setting": "[2]", "value": "does not inhibit"}, {"measurement": "activity against SIV", "setting": "[3]", "value": "does not inhibit"}, {"measurement": "antiviral activity in cell-cell fusion assays", "setting": "[7]", "value": "0.2 to 2", "unit": "nM"}, {"measurement": "activity against HIV-1", "setting": "[6]", "value": "active against several clades of HIV-1"}, {"measurement": "plasma half-life", "setting": "[8]; clinical trials, typical dose 50 mg twice daily", "value": "about 1.8 hours"}, {"measurement": "terminal half-life", "setting": "[8]; 45 mg subcutaneous dose (Zhang X et al., 2002)", "value": 3.46, "unit": "h"}, {"measurement": "terminal half-life", "setting": "[8]; 180 mg subcutaneous dose (Zhang X et al., 2002)", "value": 4.35, "unit": "h"}]}
